In US12558400B2, “Method of treatment of soft tissue sarcoma with a peptide comrpising a PCNA interacting motif” (THERAPIM PTY LTD, priority 2020, dated 2026):
Where no end group is shown, it is not given here.

Columns and labels:
[1] = system: patients with advanced solid tumors; assay: Phase I safety and tolerability study of ATX-101 (studies ATX101-01 and -02); type: in vivo
Experimental: A Phase I, open-label, single arm, safety and tolerability study was conducted (study ATX101-01) which evaluated escalating dose cohorts of ATX-101 (SEQ ID NO: 914) in patients with advanced solid tumors. The study was designed to systematically assess safety and tolerability, and to identify the Maximum Tolerated Dose (MTD) and recommended Phase II dose for ATX-101. Pharmacokinetics and preliminary efficacy (anti-tumor activity) were also assessed.
If at the end of the 6-week Phase I study (study ATX101-01) the patient's tumor didn't show signs of progression, treatment could be continued in a long-term follow-up study (study ATX101-02) until disease progression or other reasons for treatment discontinuation, e.g. withdrawal of consent.
Four dose levels (20, 35, 45 and 60 mg/m^2 of body surface area calculated based on the height and weight of patients) of intravenous ATX-101 (net peptide, excluding the mass of the salt component) were tested in the Phase I study (study ATX101-01). ATX-101 was administered via IV infusion over at least 1 hour either using a constant infusion rate or an adaptable infusion rate scheme starting with 5 mg/hr and increasing the infusion flow rate every 30 minutes, as outlined in the infusion rate table below (Table 1). […] Doses of 45 and 60 mg/m^2 were administered in 500 mL.
Treatment was administered weekly in cycles of 21-day duration, with a single IV infusion of ATX-101 on Day 1, 8 and 15 of each cycle. Dosing of patients occurred weekly for up to two cycles (i.e. 2×21 days=6 weeks).
Following the initial 6 weeks of treatment in the Phase I study (study ATX101-01), patients could continue the treatment in the long-term follow-up study (study ATX101-02). These patients, that received the same dose regimen as in study −01, were treated for up to 15.6 months.
Safety: Incidence, severity, and duration of treatment-emergent adverse events (TEAEs) and treatment related TEAEs were assessed according to Common Terminology Criteria for Adverse Events (CTCAE) v4.03.

[2] = Solubility of the peptide drug substance; type: physicochemical; details: water and aqueous media; hydrochloride salt
Excerpt: The product was available as a hydrochloride salt (chloride counter-ion is ionically bound to the basic side chains of the peptide; 18 mol/mol peptide, theoretically; Molecular formula: C158H285N71O29S, 18 HCl; Relative molecular mass: […]. Free base: 3673.3).

Ac-MDRWLVKWKKKRKIRRRRRRRRRRR (N-terminus assumed) [ATX-101]
treatment related deaths ([1]; 22 patients, weekly IV infusion, all dose levels (20-60 mg/m^2)): No treatment related deaths | course of infusion-related reactions after repeated doses ([1]; in vivo): did not worsen | Dose Limiting Toxicities (DLTs) ([1]; in vivo, iv): no Dose Limiting Toxicities | infusion-related reactions (IRR) Grade 1 or 2, proportion of patients ([1]; in vivo, iv): 73% | treatment discontinuation due to treatment related toxicity ([1]; in vivo, iv): no treatment discontinuation due to treatment related toxicity | treatment related serious adverse event or severe adverse event ([1]; in vivo, iv): no treatment related serious adverse event or severe adverse event | solubility [2]: freely soluble
